Measurements published in PMC2806265, “Divergence of allosteric effects of rapacuronium on binding and function of muscarinic receptors” (BMC Pharmacology, 2009).
Marks after values point to notes of the source that are not given here.

Legend:
M3 muscarinic receptor [1] = target: T1, M3 muscarinic receptor (Homo sapiens, UniProt P20309); assay type: binding
T1 construct: host or cells: CHO cells, stably transfected; membranes
From the text: (§1) y, radioligand binding at time x normalized to binding at time 0; koff1 and koff2, dissociation rate constants; f2, fraction of binding site with dissociation rate constant koff2. When both Eq. 7a and 7b were fitted to data the better fit was chosen based on sum of squares F-test and runs test.

M1 muscarinic receptor [2] = target: T2, M1 muscarinic receptor (Homo sapiens, UniProt P11229); assay type: binding; details: + 100 μM rapacuronium
T2 construct: host or cells: CHO cells, stably transfected; membrane preparation
T2 sequence (P11229 1-460): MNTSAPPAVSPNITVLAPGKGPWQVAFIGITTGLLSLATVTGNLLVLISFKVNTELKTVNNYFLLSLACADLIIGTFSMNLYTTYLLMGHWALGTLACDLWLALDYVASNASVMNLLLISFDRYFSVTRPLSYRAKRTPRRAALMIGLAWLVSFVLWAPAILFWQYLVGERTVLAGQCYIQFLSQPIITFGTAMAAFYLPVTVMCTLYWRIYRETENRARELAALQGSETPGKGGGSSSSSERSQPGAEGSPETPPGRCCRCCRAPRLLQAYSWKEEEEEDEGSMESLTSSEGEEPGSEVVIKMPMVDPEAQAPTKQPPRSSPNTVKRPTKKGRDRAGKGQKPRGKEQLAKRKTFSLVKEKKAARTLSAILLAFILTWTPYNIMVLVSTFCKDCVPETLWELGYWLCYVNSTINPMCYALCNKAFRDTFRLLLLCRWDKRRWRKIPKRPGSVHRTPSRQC
From the text: as §1

M5 muscarinic receptor [3] = target: T3, M5 muscarinic receptor (Homo sapiens, UniProt P08912); assay: Effect of rapacuronium on high-affinity 20 nM [3H]ACh binding; design: host or cells: CHO cells, stably transfected; membranes
T3 sequence (P08912 1-532): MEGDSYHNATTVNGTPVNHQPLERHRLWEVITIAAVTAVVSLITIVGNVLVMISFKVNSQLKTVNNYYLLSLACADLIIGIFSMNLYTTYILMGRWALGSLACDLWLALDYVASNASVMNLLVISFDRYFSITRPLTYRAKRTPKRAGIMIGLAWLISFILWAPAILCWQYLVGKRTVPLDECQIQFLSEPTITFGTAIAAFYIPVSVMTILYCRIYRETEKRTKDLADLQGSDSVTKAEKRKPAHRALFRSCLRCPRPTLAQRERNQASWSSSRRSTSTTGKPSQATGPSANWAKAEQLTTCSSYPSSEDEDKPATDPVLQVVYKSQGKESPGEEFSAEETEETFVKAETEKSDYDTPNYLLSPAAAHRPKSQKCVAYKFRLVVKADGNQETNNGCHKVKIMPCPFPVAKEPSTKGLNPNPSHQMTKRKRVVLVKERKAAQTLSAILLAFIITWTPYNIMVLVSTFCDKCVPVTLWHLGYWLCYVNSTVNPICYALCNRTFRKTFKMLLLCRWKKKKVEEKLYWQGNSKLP
From the text: (§2) Cooperativity factor greater than 1 denotes negative cooperativity and less than 1 positive cooperativity. Due to its log-normal error distribution factors of cooperativity are expressed as negative logarithms (pα) through the manuscript so negative values denotes negative cooperativity and positive value denotes positive cooperativity.

M4 muscarinic receptor [4] = target: T4, M4 muscarinic receptor (Homo sapiens, UniProt P08173); assay: as above; design: host or cells: CHO cells, stably transfected; membranes
T4 sequence (P08173 1-479): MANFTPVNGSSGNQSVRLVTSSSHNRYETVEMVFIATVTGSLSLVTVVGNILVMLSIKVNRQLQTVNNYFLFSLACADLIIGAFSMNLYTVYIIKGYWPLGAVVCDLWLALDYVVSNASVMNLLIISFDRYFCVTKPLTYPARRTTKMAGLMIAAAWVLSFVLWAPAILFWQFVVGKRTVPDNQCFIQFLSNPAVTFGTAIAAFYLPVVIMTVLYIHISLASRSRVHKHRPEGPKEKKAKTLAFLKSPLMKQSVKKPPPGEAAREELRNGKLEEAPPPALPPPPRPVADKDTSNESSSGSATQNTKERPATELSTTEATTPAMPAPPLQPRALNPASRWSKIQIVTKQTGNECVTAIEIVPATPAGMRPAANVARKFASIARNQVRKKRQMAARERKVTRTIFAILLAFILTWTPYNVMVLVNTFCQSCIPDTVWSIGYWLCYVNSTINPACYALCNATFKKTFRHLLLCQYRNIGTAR
From the text: as §2

M5 muscarinic receptor [5] = target: T3, M5 muscarinic receptor; assay: Effect of rapacuronium on low-affinity ACh binding ([3H]NMS + GTPγS + ACh); design: host or cells: CHO cells, stably transfected; membranes
From the text: […]. Data are expressed as percent of specific binding in the absence of rapacuronium. […]. […] Data are means ± SE from 3 independent experiments performed in quadruplicates. Curves are fits of Eq. 3 (circles) and Eq. 4 (squares and triangles) to data prior to normalization.
[…]. […] […].

M5 muscarinic receptor [6] = target: T3, M5 muscarinic receptor; assay: [3H]NMS dissociation
M4 muscarinic receptor [7] = target: T4, M4 muscarinic receptor; assay: [3H]NMS dissociation; details: + 100 μM rapacuronium
M3 muscarinic receptor [8] = target: T1, M3 muscarinic receptor; assay: Effect of rapacuronium on 1 nM [3H]NMS binding
From the text: as §2

M1 muscarinic receptor [9] = target: T2, M1 muscarinic receptor; assay: Effect of rapacuronium on 1 nM [3H]NMS binding
From the text: as §2

M5 muscarinic receptor [10] = target: T3, M5 muscarinic receptor; assay: [35S]GTPγS binding to membranes; assay type: biochemical; design: host or cells: CHO cells, stably transfected; membranes; details: for EMAX of ACh on [^35S]GTPγS binding: fold of basal
Experimental: (§3) For determination of [^35S]GTPγS binding to G-proteins in membranes a final concentration of 200 pM (M1, M3 and M5 receptors) or 500 pM (M2 and M4 receptors) of [^35S]GTPγS was used. Incubation medium was supplemented with 5 μM (M1, M3 and M5 receptors) or 50 μM (M2 and M4 receptors) GDP. […] Incubation with [^35S]GTPγS was carried out for 20 min and free ligand was removed by filtration as described above. Filtration and washing with ice-cold water lasted for 9 s (wash-aspirate button time).

[11] = system: M1 to M5 muscarinic receptors; assay: [35S]GTPγS binding, statements over several subtypes; details: rapacuronium alone
Experimental: as §3

[12] = M5, negative value = negative cooperativity
[13] = read-out: pKA of rapacuronium (converted)

T1 sequence (P20309 whole entry): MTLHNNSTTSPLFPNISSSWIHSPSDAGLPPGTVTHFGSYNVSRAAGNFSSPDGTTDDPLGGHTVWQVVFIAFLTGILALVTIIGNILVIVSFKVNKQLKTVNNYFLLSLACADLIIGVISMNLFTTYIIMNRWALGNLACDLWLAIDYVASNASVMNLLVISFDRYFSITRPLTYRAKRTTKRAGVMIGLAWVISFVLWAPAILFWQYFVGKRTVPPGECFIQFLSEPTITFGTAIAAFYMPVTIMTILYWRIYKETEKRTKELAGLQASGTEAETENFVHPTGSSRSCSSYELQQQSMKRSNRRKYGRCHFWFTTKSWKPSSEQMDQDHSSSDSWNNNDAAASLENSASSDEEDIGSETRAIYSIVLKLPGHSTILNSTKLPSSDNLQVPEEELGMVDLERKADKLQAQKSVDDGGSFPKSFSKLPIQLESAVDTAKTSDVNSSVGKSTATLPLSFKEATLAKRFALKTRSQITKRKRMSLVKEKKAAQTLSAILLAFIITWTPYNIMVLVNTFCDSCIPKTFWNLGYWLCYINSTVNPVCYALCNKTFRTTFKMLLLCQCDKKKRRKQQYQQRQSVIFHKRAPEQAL

**Q.** How did the “decrease in rate of [^3H]NMS dissociation” value (M3 muscarinic receptor [1]; 100 μM rapacuronium) turn out when `C=CC[N+]1([C@H]2C[C@H]3[C@@H]4CC[C@H]5C[C@H](OC(C)=O)[C@@H](N6CCCCC6)C[C@]5(C)[C@H]4CC[C@]3(C)[C@H]2OC(=O)CC)CCCCC1` [rapacuronium] was run?
**A.** Its value is 40%.

**Q.** What about the “f2, fraction of sites with faster dissociation” value (“f2, fraction of sites” below) (M3 muscarinic receptor [1]; + 100 μM rapacuronium) of the same molecule?
**A.** The value was 20 ± 4%.

**Q.** And the “koff1 of [^3H]NMS dissociation” value (M3 muscarinic receptor [1]; + 100 μM rapacuronium)?
**A.** Its value is 0.031 ± 0.002* min^-1.

**Q.** What about the “koff2 of [^3H]NMS dissociation” value (M3 muscarinic receptor [1]; + 100 μM rapacuronium) of the same molecule?
**A.** The value was 0.000967 ± 0.00015 s⁻¹.

**Q.** And the “f2, fraction of sites” value (M1 muscarinic receptor [2])?
**A.** The value was 14 ± 3%.

**Q.** And the “koff1 of [^3H]NMS dissociation” value (M1 muscarinic receptor [2])?
**A.** The value was 0.014 ± 0.001* min^-1.

**Q.** What about the “koff2 of [^3H]NMS dissociation” value (M1 muscarinic receptor [2]) of the same molecule?
**A.** The value was 0.00567 ± 0.00083 s⁻¹.

**Q.** And the “pα, cooperativity with [^3H]ACh high affinity binding” value (M5 muscarinic receptor [3]; [12])?
**A.** The value was -1.34 ± 0.07.

**Q.** What about the Kd (M5 muscarinic receptor [3]; [13]) of the same molecule?
**A.** Its Kd is 12 µM.

**Q.** What about the “pα, cooperativity with [^3H]ACh high affinity binding” value (M4 muscarinic receptor [4]; M4, negative value = negative cooperativity) of the same molecule?
**A.** The value was -1.51 ± 0.05.

**Q.** And the Kd (M4 muscarinic receptor [4]; [13])?
**A.** The Kd was 3.89 µM.

**Q.** And the Kd (M5 muscarinic receptor [5])?
**A.** Its Kd is 11.2 µM.

**Q.** What about the “pβ, cooperativity with ACh low affinity binding” value (M5 muscarinic receptor [5]; [12]) of the same molecule?
**A.** Its value is -1.28 ± 0.07.

**Q.** What about the “decrease in rate of [^3H]NMS dissociation” value (M5 muscarinic receptor [6]; 100 μM rapacuronium) of the same molecule?
**A.** Its value is 40%.

**Q.** And the “koff1 of [^3H]NMS dissociation” value (M5 muscarinic receptor [6]; + 100 μM rapacuronium, monophasic)?
**A.** The value was 0.0078 ± 0.0004* min^-1.

**Q.** What about the “f2, fraction of sites” value (M4 muscarinic receptor [7]) of the same molecule?
**A.** Its value is 6.0 ± 2.0%.

**Q.** And the “koff1 of [^3H]NMS dissociation” value (M4 muscarinic receptor [7])?
**A.** Its value is 0.017 ± 0.001* min^-1.

**Q.** What about the “koff2 of [^3H]NMS dissociation” value (M4 muscarinic receptor [7]) of the same molecule?
**A.** Its value is 0.0125 ± 0.00183 s⁻¹.

**Q.** And the “pα, cooperativity with [^3H]NMS” value (M3 muscarinic receptor [8]; M3, negative value = negative cooperativity)?
**A.** The value was -1.11 ± 0.05.

**Q.** What about the Kd (M3 muscarinic receptor [8]; [13]) of the same molecule?
**A.** The Kd was 17.8 µM.

**Q.** What about the “pα, cooperativity with [^3H]NMS” value (M1 muscarinic receptor [9]; M1, negative value = negative cooperativity) of the same molecule?
**A.** Its value is -1.08 ± 0.05.

**Q.** What about the Kd (M1 muscarinic receptor [9]; [13]) of the same molecule?
**A.** Its Kd is 4.27 µM.

**Q.** What about the EC50 (M5 muscarinic receptor [10]) of the same molecule?
**A.** Its EC50 is 61.7 µM.

**Q.** What about the “decrease in ACh EC50” value (M5 muscarinic receptor [10]; M5, 0.1 μM rapacuronium) of the same molecule?
**A.** Its value is 1.5 fold.

**Q.** And the “decrease in ACh EC50” value (M5 muscarinic receptor [10]; M5, 1 μM rapacuronium)?
**A.** The value was 4 fold.

**Q.** What about the “EMAX of ACh on [^35S]GTPγS binding” value (M5 muscarinic receptor [10]; M5, + 0.1 μM rapacuronium) of the same molecule?
**A.** The value was 2.10 ± 0.09.

**Q.** And the “EMAX of ACh on [^35S]GTPγS binding” value (M5 muscarinic receptor [10]; M5, + 1 μM rapacuronium)?
**A.** The value was 2.04 ± 0.09.

**Q.** And the “EMAX of ACh on [^35S]GTPγS binding” value (M5 muscarinic receptor [10]; M5, + 10 μM rapacuronium)?
**A.** Its value is 2.22 ± 0.09.

**Q.** What about the “EMAX of rapacuronium on [^35S]GTPγS binding” value (M5 muscarinic receptor [10]; M5, rapacuronium alone, normalized to absence of rapacuronium) of the same molecule?
**A.** The value was 0.75 ± 0.07.

**Q.** What about the “maximal lowering of [^35S]GTPγS binding” value ([11]; even-numbered subtypes) of the same molecule?
**A.** The value was about 15%.

**Q.** And the “maximal lowering of [^35S]GTPγS binding” value ([11]; odd-numbered subtypes)?
**A.** The value was “approximately 25%”.
